# According to publication PMC11593696, “Discovery of Potent Benzothiazole Inhibitors of Oxidoreductase NQO2, a Target for Inflammation and Cancer” (International Journal of Molecular Sciences, 2024):
# Where two headings read alike, the source gives them in different places.
# Legend:
# [1] = molecular target: T1, recombinant human NQO2 (Homo sapiens, UniProt P16083); test: NQO2 enzyme inhibition assay (DCPIP substrate, NRH or EPR co-substrate); format: biochemical
# T1 sequence (P16083 1-231): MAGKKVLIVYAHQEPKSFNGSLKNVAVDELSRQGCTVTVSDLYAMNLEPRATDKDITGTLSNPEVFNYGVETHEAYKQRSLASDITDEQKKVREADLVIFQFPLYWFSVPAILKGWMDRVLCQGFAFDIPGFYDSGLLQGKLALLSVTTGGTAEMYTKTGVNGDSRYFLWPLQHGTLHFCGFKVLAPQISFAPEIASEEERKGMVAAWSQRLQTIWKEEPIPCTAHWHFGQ
# Description: In this assay, dichlorophenolindophenol (DCPIP) was used as a substrate for NQO2. NRH (SI or EP0152R) was used as the co-substrate for the enzyme.
# The NQO2 enzyme assay was carried out using a […] GO spectrophotometer by measuring the absorbance of DCPIP at 600 nm. NRH [31] or EPR were used as co-substrates. The experiment was performed using a 96-well plate with a […] final volume using phosphate buffer (50 mM, pH 7.4). The final concentrations were DCPIP 40 µM and NRH or EPR 200 µM. The final enzyme concentration was 100 ng. The assay was performed at 37 °C and initiated through the addition of NQO2. The initial rates of the enzyme reactions were calculated from the curve by taking the initial slopes of the reactions using the formula (ΔAb/ΔTime). The assay of inhibitors was carried out using the same assay conditions. […] Each experiment was performed in triplicate. Rates were converted to the percentage of enzyme activity, and IC50 values were calculated using GraphPad Prism 7.03 software using the non-linear regression function. IC50 values were determined as a 50% decrease in NQO2 activity.
# [2] = molecular target: NQO2; settings: read-out: dissociation constant; cited from earlier work
# [3] = DCPIP substrate, NRH co-substrate, read-out: IC50 for inhibition of NQO2
# [4] = inhibition of NQO2, DCPIP 40 µM, NRH or EPR 200 µM, phosphate buffer pH 7.4, 37 °C, triplicate, read-out: IC50 (µM) ± SD
"IC50 [1, 3]","IC50 [1, 4]",melting point,SMILES,Kd [2]
1.18 µM,1.18 ± 0.002 µM,220 to 222 °C,"COc1ccc(OC)c(-c2nc3ccc(Cl)cc3s2)c1 [Compound 27, 6-Chloro-2-(2,5-dimethoxyphenyl)benzo[d]thiazole]",–
–,> 100 µM,182 to 184 °C,"COc1ccc(OC)c(-c2nc3ccc(C#N)cc3s2)c1 [Compound 28, 2-(2,5-Dimethoxyphenyl)benzo[d]thiazole-6-carbonitrile]",–
2.06 µM,2.06 ± 0.01 µM,105 to 107 °C,"COc1ccc(OC)c(-c2nc3ccc(F)cc3s2)c1 [Compound 29, 2-(2,5-Dimethoxyphenyl)-6-fluorobenzo[d]thiazole]",–
9.09 µM,9.09 ± 0.04 µM,165 to 168 °C,"COc1ccc(-c2nc3ccc(Br)cc3s2)cc1OC [Compound 33, 6-Bromo-2-(3,4-dimethoxyphenyl)benzo[d]thiazole]",–
–,63.28 ± 0.02 µM,221 to 222 °C,"COc1ccc(-c2nc3ccc([N+](=O)[O-])cc3s2)cc1OC [Compound 39, 2-(3,4-Dimethoxyphenyl)-6-nitrobenzo[d]thiazole]",–
–,0.193 ± 0.003 µM,171 to 172 °C,"COc1cc(-c2nc3ccc(Br)cc3s2)cc(OC)c1OC [Compound 41, 6-Bromo-2-(3,4,5-trimethoxyphenyl)benzo[d]thiazole]",–
–,0.773 ± 0.016 µM,173 to 174 °C,"COc1cc(-c2nc3ccc(Cl)cc3s2)cc(OC)c1OC [Compound 43, 6-Chloro-2-(3,4,5-trimethoxyphenyl)benzo[d]thiazole]",–
13.3 µM,13.28 ± 0.02 µM,228 to 230 °C,"COc1cc(-c2nc3ccc(C#N)cc3s2)cc(OC)c1OC [Compound 44, 2-(3,4,5-Trimethoxyphenyl)benzo[d]thiazole-6-carbonitrile]",–
–,0.717 ± 0.015 µM,156 to 158 °C,"COc1cc(-c2nc3ccc(F)cc3s2)cc(OC)c1OC [Compound 45, 6-Fluoro-2-(3,4,5-trimethoxyphenyl)benzo[d]thiazole]",–
0.079 µM,0.079 ± 0.017 µM,212 to 215 °C,"COc1cc(-c2nc3ccc(N)cc3s2)cc(OC)c1OC [Compound 48, 2-(3,4,5-Trimethoxyphenyl)benzo[d]thiazol-6-amine]",–

# More lines, now with the values behind:
SMILES,"IC50 [1, 3]","IC50 [1, 4]",melting point,Kd [2]
"COc1cc(-c2nc3ccc([N+](=O)[O-])cc3s2)cc(OC)c1OC [Compound 47, 6-Nitro-2-(3,4,5-trimethoxyphenyl)benzo[d]thiazole]",–,0.754 ± 0.008 µM,200 to 201 °C,–
"COc1cc(-c2nc3ccc(NC(C)=O)cc3s2)cc(OC)c1OC [Compound 49, N-(2-(3,4,5-Trimethoxyphenyl)benzo[d]thiazol-6-yl)acetamide]",0.031 µM,0.031 ± 0.008 µM,208 to 209 °C,–
"COc1cc(-c2nc3ccc(NC(=O)c4ccccc4)cc3s2)cc(OC)c1OC [Compound 50, N-(2-(3,4,5-Trimethoxyphenyl)benzo[d]thiazol-6-yl)benzamide]",3.17 µM,3.17 ± 0.031 µM,205 to 207 °C,–
"COc1cc(OC)cc(C(=O)Nc2ccc3nc(-c4cc(OC)c(OC)c(OC)c4)sc3c2)c1 [Compound 51, 3,5-Dimethoxy-N-(2-(3,4,5-trimethoxyphenyl)benzo[d]thiazol-6-yl)benzamide]",–,3.11 ± 0.03 µM,185 to 187 °C,–
"Oc1ccc2nc(-c3cc(O)c(O)c(O)c3)sc2c1 [Compound 52, 6-Hydroxy-2-(3,4,5-trihydroxyphenyl)benzo[d]thiazole]",–,0.2 ± 0.01 µM,240 to 242 °C,–
"COc1cccc(-c2nc3ccc(F)cc3s2)c1 [Compound 53, 6-Fluoro-2-(3-methoxyphenyl)benzo[d]thiazole]",0.908 µM,0.908 ± 0.02 µM,103 to 105 °C,–
"COc1ccc(-c2nc3ccc(F)cc3s2)cc1 [Compound 54, 6-Fluoro-2-(4-methoxyphenyl)benzo[d]thiazole]",> 100 µM,> 100 µM,127 to 130 °C,–
"Fc1cccc(-c2nc3ccc(F)cc3s2)c1 [Compound 55, 6-Fluoro-2-(3-fluorophenyl)benzo[d]thiazole]",52.6 µM,52.55 ± 0.06 µM,111 to 112 °C,–
"Oc1ccc(/C=C/c2cc(O)cc(O)c2)cc1 [Resveratrol, trans-3,4’,5-trihydroxystilbene]",–,–,–,35 nM
